# Measured values published in US5849259A, “3-,8-substituted deuteroporphyrin derivatives, pharmaceutical agents containing the latter and process for their production” (priority 1992, dated 1998).
# Key:
# [1] = Tissue relaxation times T1 and T2 (Bruker minispec pc 120) after 0.1 mmol/kg i.v.; type: in vivo, nude mice (Balb/c nu/nu)
# Experimental: (§1) e) 9 nude mice (Balb/c nu/nu) with subcutaneously implanted colon cancers (HT29 and WiDr) were each administered by i.v. 0.1 mmol/kg of the deuteroporphyrin derivative of the compound according to example 1c (10 mmol/l dissolved in bidistilled water, pH 7.2, 37° C.). After 0.5, 3 and 24 hours, the animals were killed and dissected. The tissue concentrations were determined after corresponding working-up (HNO3 conc.) by ICP-AES and calculated for % of the administered dose per gram of tissue net weight. Moreover, tissue relaxation times T1 and T2 were determined (Bruker minispec pc 120).
# f) 9 nude mice (Balb/c nu/nu) with subcutaneously implanted carcinomas (HT29, WiDr and MATLu) were each administered by i.v. 0.1 mmol/kg of the deuteroporphyrin derivative of example 1c (10 mmol/L dissolved in bidistilled water, pH 7.2, 37° C.). After 2 hours, the animals were killed and dissected. The tissue concentrations were determined after corresponding working-up (HNO3 conc.) by ICP-AES and calculated for % of the administered dose per gram of tissue net weight. Moreover, tissue relaxation times T1 and T2 were determined (Bruker minispec pc 120). To determine the blank readings, control animals were correspondingly studied without KM-administration.
# Relaxivity = type: physicochemical
# [2] = Tissue concentrations by ICP-AES after 0.1 mmol/kg i.v. in nude mice with subcutaneously implanted colon cancers (HT29, WiDr); type: in vivo, nude mice (Balb/c nu/nu)
# Experimental: (§2) a) 9 nude mice (Balb/c nu/nu) with subcutaneously implanted colon cancers (HT29, WiDr) were each administered by i.v. 0.1 mmol/kg of the mesoporphyrin derivative of example 1b (10 mmol/l dissolved in bidistilled water, pH 7.2, 37° C.). After 0.5, 3 and 24 hours the animals were killed and dissected. The tissue concentrations were determined after corresponding working-up (HNO3 conc.) by ICP-AES and calculated for % of the administered dose per gram of tissue net weight.
# as §1
# as §2, with “9” for “a) 9”, “8e” for “1b”, “hours,” for “hours”
# as §2, with “9” for “a) 9”, “0.1.” for “0.1”, “16f” for “1b”, “0.5 and” for “0.5,”, “3” for “3 and 24”
# as §2, with “9” for “a) 9”, “18d” for “1b”, “0.5 and” for “0.5,”, “hours,” for “and 24 hours”
# as §2, with “9” for “a) 9”, “19e” for “1b”, “hours,” for “hours”
# [3] = system: HT29 and WiDr colon cancer; test: Signal intensity change in tissues of tumor-bearing (HT29 and WiDr colon cancer) nude mice, example 1c, 0.5 mmol/kg; type: in vivo, nude mice (Balb/c nu/nu); settings: 0.5 mmol/kg i.v.
# Experimental: d) On a Bruker Biospec nuclear spin tomograph (2.35 Tesla), the signal intensity change in various tissues of tumor-bearing (HT29 and WiDr colon cancer) nude mice (Balb/c nu/nu) was studied after i.v. administration of 0.5 mmol/kg of the compound of example 1c (10 mmol/l, pH 7.2; 37° C. in bidistilled water). The measurement takes place with a multi slice single echo sequence (MSSE). Imaging parameters: TR: 400 ms, TE: 30 ms, layer thickness: 4 mm, number of averages: 4/slice, matrix 256^2. After a preliminary image, 0.5 mmol/kg of the substance was administered and the signal intensity change studied up to 180 minutes p.i.
substance,measurement,setting,value
"N,N'-Bis[9-carboxylato-2,5,8-tris(carboxylatomethyl)-2,5,8-triazanonyl-carbamoyl]-mesoporphyrin-IX-13,17-diamide, digadolinium complex, disodium salt [Example 1c]","tissue relaxation time T1, HT29 tumor",[1]; 0.5 hour,410 ± 30 ms
same,"tissue relaxation time T1, WiDr tumor",[1]; 0.5 hour,320 ± 40 ms
same,"tissue relaxation time T1, kidneys",[1]; 0.5 hour,160 ± 10 ms
same,"tissue relaxation time T1, liver",[1]; 0.5 hour,220 ± 20 ms
same,"tissue relaxation time T1, muscle",[1]; 0.5 hour,500 ± 40 ms
same,"tissue relaxation time T2, HT29 tumor",[1]; 0.5 hour,81 ± 4 ms
same,"tissue relaxation time T2, WiDr tumor",[1]; 0.5 hour,67 ± 7 ms
same,"tissue relaxation time T2, kidneys",[1]; 0.5 hour,42 ± 1 ms
same,"tissue relaxation time T2, liver",[1]; 0.5 hour,34 ± 3 ms
same,"tissue relaxation time T2, muscle",[1]; 0.5 hour,32 ± 1 ms
same,effect on tissue relaxation times in prostate cancer (MATLu) versus colon cancers,[1]; 2 hours,greater than in the colon cancers
same,"tissue relaxation time T1, HT29 tumor",[1]; 2 hours,375 ± 32 ms
same,"tissue relaxation time T1, MATLu",[1]; 2 hours,361 ± 65 ms
same,"tissue relaxation time T1, WiDr tumor",[1]; 2 hours,358 ± 70 ms
same,"tissue relaxation time T2, HT29 tumor",[1]; 2 hours,94 ± 7 ms
same,"tissue relaxation time T2, MATLu",[1]; 2 hours,102 ± 10 ms
same,"tissue relaxation time T2, WiDr tumor",[1]; 2 hours,110 ± 9 ms
same,"tissue relaxation time T1, HT29 tumor",[1]; 3 hours,440 ± 70 ms
same,"tissue relaxation time T1, WiDr tumor",[1]; 3 hours,430 ± 50 ms
same,"tissue relaxation time T1, kidneys",[1]; 3 hours,230 ± 30 ms
same,"tissue relaxation time T1, liver",[1]; 3 hours,220 ± 30 ms
same,"tissue relaxation time T1, muscle",[1]; 3 hours,560 ± 40 ms
same,"tissue relaxation time T2, HT29 tumor",[1]; 3 hours,72 ± 8 ms
same,"tissue relaxation time T2, WiDr tumor",[1]; 3 hours,72 ± 7 ms
same,"tissue relaxation time T2, kidneys",[1]; 3 hours,47 ± 5 ms
same,"tissue relaxation time T2, liver",[1]; 3 hours,42 ± 2 ms
same,"tissue relaxation time T2, muscle",[1]; 3 hours,36 ± 3 ms
same,"tissue relaxation time T1, HT29 tumor",[1]; 24 hours,540 ± 20 ms
same,"tissue relaxation time T1, WiDr tumor",[1]; 24 hours,640 ± 10 ms
same,"tissue relaxation time T1, kidneys",[1]; 24 hours,240 ± 20 ms
same,"tissue relaxation time T1, liver",[1]; 24 hours,260 ± 10 ms
same,"tissue relaxation time T1, muscle",[1]; 24 hours,660 ± 10 ms
same,"tissue relaxation time T2, HT29 tumor",[1]; 24 hours,83 ± 7 ms
same,"tissue relaxation time T2, WiDr tumor",[1]; 24 hours,85 ± 2 ms
same,"tissue relaxation time T2, kidneys",[1]; 24 hours,54 ± 10 ms
same,"tissue relaxation time T2, liver",[1]; 24 hours,48 ± 7 ms
same,"tissue relaxation time T2, muscle",[1]; 24 hours,31 ± 1 ms
same,"shortening of T1 tissue relaxation times, all three tumors","[1]; HT29, WiDr, MATLu, 2 hours",2-3 factor
same,"shortening of T1 tissue relaxation times, both tumors",[1]; HT29 and WiDr,2-3 factor
same,"tissue relaxation time T1, kidneys","[1]; HT29 mice, 2 hours",150 ± 12 ms
same,"tissue relaxation time T1, liver","[1]; HT29 mice, 2 hours",174 ± 8 ms
same,"tissue relaxation time T1, muscle","[1]; HT29 mice, 2 hours",489 ± 57 ms
same,"tissue relaxation time T2, kidneys","[1]; HT29 mice, 2 hours",59 ± 3 ms
same,"tissue relaxation time T2, liver","[1]; HT29 mice, 2 hours",49 ± 2 ms
same,"tissue relaxation time T2, muscle","[1]; HT29 mice, 2 hours",56 ± 2 ms
same,"tissue relaxation time T1, kidneys","[1]; MATLu mice, 2 hours",171 ± 20 ms
same,"tissue relaxation time T1, liver","[1]; MATLu mice, 2 hours",191 ± 10 ms
same,"tissue relaxation time T1, muscle","[1]; MATLu mice, 2 hours",506 ± 10 ms
same,"tissue relaxation time T2, kidneys","[1]; MATLu mice, 2 hours",60 ± 1 ms
same,"tissue relaxation time T2, liver","[1]; MATLu mice, 2 hours",51 ± 2 ms
same,"tissue relaxation time T2, muscle","[1]; MATLu mice, 2 hours",54 ± 2 ms
same,"tissue relaxation time T1, kidneys","[1]; WiDr mice, 2 hours",159 ± 30 ms
same,"tissue relaxation time T1, liver","[1]; WiDr mice, 2 hours",180 ± 30 ms
same,"tissue relaxation time T1, muscle","[1]; WiDr mice, 2 hours",508 ± 40 ms
same,"tissue relaxation time T2, kidneys","[1]; WiDr mice, 2 hours",64 ± 2 ms
same,"tissue relaxation time T2, liver","[1]; WiDr mice, 2 hours",53 ± 5 ms
same,"tissue relaxation time T2, muscle","[1]; WiDr mice, 2 hours",62 ± 3 ms
same,relaxivity,Relaxivity,17.86 1 mmol^-1 s^-1
same,"tissue concentration, kidneys",[2]; 0.5 hour p.i.,4.06 ± 1.01 % of the administered dose per gram of tissue net weight
same,"tissue concentration, kidneys",[2]; 3 hours p.i.,4.47 ± 1.63 % of the administered dose per gram of tissue net weight
same,"tissue concentration, kidneys",[2]; 24 hours p.i.,4.20 ± 0.27 % of the administered dose per gram of tissue net weight
same,"signal intensity change, liver tissue and both tumors",[3]; 5 minutes p.i.,marked signal intensity increase
same,"signal intensity change, muscle",[3]; reference tissue,smaller signal increase
